Read-outs that look alike come from different tables or passages of the source.
How the values were obtained:
[1] = system: oxidative stress related inflammation and cancer cell proliferation; details: cited from earlier work
transgenic APP/PS1 mice = details: 25 mg/kg; cited from earlier work
BACE1 = biological target: T1, BACE1 (Homo sapiens, UniProt P56817); assay: BACE1 FRET assay; format: biochemical; details: mean ± SD, read-out: Inhibitory activity (%) against BACE1
T1 construct: purchased Thermo Fisher Scientific, Inc; host or cells: baculovirus expression system
T1 sequence (P56817 46-501): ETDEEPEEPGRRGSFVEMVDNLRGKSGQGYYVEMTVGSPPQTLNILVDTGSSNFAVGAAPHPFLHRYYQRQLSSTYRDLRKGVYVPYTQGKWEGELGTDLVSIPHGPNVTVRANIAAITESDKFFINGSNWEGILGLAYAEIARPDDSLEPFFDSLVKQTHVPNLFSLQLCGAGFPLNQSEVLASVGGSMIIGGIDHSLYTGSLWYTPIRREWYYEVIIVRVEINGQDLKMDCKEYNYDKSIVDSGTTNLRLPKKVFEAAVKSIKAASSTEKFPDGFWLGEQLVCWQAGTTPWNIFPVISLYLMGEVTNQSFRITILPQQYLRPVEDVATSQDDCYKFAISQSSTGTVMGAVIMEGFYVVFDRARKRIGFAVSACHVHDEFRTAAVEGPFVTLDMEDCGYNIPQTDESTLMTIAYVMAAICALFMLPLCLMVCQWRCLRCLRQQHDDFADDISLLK
Description: To evaluate BACE1 inhibitory activity, a BACE1 FRET assay kit with a recombinant baculovirus-expressed BACE1 and a Rh-[…]-Quencher substrate was used. Briefly, a mixture of BACE1 (1.0 U/mL), the substrate, and tested sample at a different concentration, was incubated for 60 min at 25 °C in well plates. The increase in fluorescence intensity was measured by a fluorescence microplate reader at excitation and emission wavelengths of 545/590 nm (FLX800, Winooski, VT, USA). The inhibitory ratio (%) was calculated using the formula: Inhibition (%) = [1 − (S − S0)/(C − C0)] × 100, where C is the absorbance of control after 60 min of incubation, C0 is the absorbance of control at time 0, S was the absorbance of samples after 60 min of incubation, and S0 was the absorbance of the samples at time 0.

Elastase = biological target: T2, Elastase (Sus scrofa, UniProt P00772); assay: Enzyme selectivity assay, elastase; format: biochemical; details: mean ± SD, read-out: Inhibitory activity (%) against Elastase
T2 construct: purchased Sigma-Aldrich
T2 sequence (P00772 27-266): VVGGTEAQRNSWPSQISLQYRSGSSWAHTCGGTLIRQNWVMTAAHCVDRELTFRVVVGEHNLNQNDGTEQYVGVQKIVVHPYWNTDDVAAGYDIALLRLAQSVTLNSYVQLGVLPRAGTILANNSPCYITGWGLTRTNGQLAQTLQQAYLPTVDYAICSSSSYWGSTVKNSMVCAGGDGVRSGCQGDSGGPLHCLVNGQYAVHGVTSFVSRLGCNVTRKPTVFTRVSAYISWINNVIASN
Description: (§1) To determine enzyme selectivity, trypsin, chymotrypsin, and elastase were analyzed using […], and N-succinyl-Ala-Ala-Ala-pNA as substrates, respectively. The reaction mixture was incubated for 20 min and the absorbance was measured at 410 nm.

Trypsin = assay: Enzyme selectivity assay, trypsin; format: biochemical; details: mean ± SD
Description: as §1

Chymotrypsin = biological target: T3, Chymotrypsin (Bos taurus, UniProt P00766); assay: Enzyme selectivity assay, chymotrypsin; format: biochemical; details: mean ± SD, read-out: Inhibitory activity (%) against Chymotrypsin
T3 construct: purchased Sigma-Aldrich
Description: as §1

Sprague–Dawley rats = details: 1 and 10 mg/kg; cited from earlier work
BChE [2] = biological target: T4, BChE (Equus caballus, UniProt P81908); assay: Anti-cholinesterase activity assay (modified Ellman method), BChE; format: biochemical
T4 sequence (P81908 whole entry): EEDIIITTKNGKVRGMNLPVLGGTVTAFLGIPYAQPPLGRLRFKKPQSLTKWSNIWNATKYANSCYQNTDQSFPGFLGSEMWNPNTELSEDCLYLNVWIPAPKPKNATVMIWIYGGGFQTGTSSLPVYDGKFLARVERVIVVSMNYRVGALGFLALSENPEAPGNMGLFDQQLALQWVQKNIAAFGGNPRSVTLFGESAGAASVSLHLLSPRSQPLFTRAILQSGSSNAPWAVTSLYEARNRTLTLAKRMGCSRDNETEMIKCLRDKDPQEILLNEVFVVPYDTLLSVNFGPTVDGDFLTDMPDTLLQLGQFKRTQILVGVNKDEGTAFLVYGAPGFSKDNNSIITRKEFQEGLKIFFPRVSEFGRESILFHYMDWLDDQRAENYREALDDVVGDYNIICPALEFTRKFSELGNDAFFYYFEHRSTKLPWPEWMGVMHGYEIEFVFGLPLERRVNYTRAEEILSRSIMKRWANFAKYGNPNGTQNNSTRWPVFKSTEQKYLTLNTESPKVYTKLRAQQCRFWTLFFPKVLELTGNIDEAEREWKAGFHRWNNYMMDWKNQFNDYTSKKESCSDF
Description: (§2) AChE or BChE (0.8 U/mL) was added to a mixture which contained 0.1 M sodium phosphate buffer, 5 mM DTNB, and a tested sample, and then incubated at 37 °C for 15 min.
(§3) The cholinesterases inhibition kinetics of zerumbone were analyzed using Dixon and Lineweaver-Burk plots. The dissociation constant (Ki) was determined by interpretation of the Dixon plot, and Vmax and Km were calculated by Lineweaver–Burk plots, using the initial velocities obtained over a substrate concentration range [11].

mice = details: cited from earlier work
AChE = AChE (Electrophorus electricus, UniProt O42275); details: Dixon and Lineweaver-Burk plots
Chain of AChE (O42275 24-633): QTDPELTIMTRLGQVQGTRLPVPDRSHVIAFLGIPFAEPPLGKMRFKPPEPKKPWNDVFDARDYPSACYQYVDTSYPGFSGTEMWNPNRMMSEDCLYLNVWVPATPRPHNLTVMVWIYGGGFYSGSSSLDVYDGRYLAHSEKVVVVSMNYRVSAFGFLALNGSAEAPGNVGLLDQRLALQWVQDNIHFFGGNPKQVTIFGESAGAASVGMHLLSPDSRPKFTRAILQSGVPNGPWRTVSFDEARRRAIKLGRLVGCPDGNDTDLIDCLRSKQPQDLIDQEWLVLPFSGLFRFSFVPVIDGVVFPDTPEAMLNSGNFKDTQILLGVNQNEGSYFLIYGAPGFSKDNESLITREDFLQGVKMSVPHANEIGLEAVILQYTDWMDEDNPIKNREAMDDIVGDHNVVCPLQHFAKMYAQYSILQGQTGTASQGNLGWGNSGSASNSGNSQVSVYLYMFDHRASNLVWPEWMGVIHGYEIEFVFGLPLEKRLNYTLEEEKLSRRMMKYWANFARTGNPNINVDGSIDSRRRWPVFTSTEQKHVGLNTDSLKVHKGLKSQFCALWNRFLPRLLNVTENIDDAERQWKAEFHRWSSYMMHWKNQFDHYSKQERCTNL
Description: as §2, §3

BChE [3] = biological target: T4, BChE; details: ref Xavier et al. 2015; cited from earlier work

Compound: C/C1=C\CC/C(C)=C/CC(C)(C)/C=C/C1 [α-Humulene]
- Activity in oxidative stress related inflammation and cancer cell proliferation [1]: virtually inactive

Compound: C/C1=C\CC(C)(C)/C=C/C(=O)/C(C)=C/CC1 [Zerumbone]
- Effect on behavioral impairments and Aβ deposition (transgenic APP/PS1 mice): alleviated behavioral impairments and Aβ deposition
- inhibition at 50 µM (BACE1; 50 µM): 13.3 ± 1.2%
- inhibition at 100 µM (BACE1; 100 µM): 16.1 ± 1.36%
- inhibition at 50 µM (Elastase; 50 µM): 3.46 ± 1.85%
- inhibition at 100 µM (Elastase; 100 µM): 3.57 ± 0.94%
- Inhibitory activity (%) against Trypsin (Trypsin; 50 µM): 5.00 ± 1.94%
- Inhibitory activity (%) against Trypsin (Trypsin; 100 µM): 3.75 ± 2.03%
- inhibition at 50 µM (Chymotrypsin; 50 µM): 3.45 ± 0.3%
- inhibition at 100 µM (Chymotrypsin; 100 µM): 2.71 ± 0.45%
- Effect on cognitive impairments and memory deficits related to scopolamine (Sprague–Dawley rats): attenuated cognitive impairments and memory deficits
- BChE Inhibition Type (BChE [2]; Dixon and Lineweaver-Burk plots): Competitive
- Fold more potent BChE suppression in comparison to galantamine (BChE [2]; versus positive control galantamine): approximately 3 fold
- Genotoxicity, organ weight, clinical chemistry, hematology, histopathology (mice; mouse, in vivo, ip): did not cause any genotoxicity
- Acute toxicity in vivo (mice; previous in vivo studies): did not produce significant acute toxicity
- AChE Inhibition Type (AChE): Non-competitive

Compound: COc1ccc2c3c1O[C@H]1C[C@@H](O)C=C[C@@]31CCN(C)C2 [Galantamine]
- BChE Inhibition Type (BChE [3]): Competitive ^5

Reference: PMC7281973, “Biological and Computational Studies for Dual Cholinesterases Inhibitory Effect of Zerumbone” (Nutrients, 2020)
